This note sets out measurements from ChEMBL document CHEMBL4419169, “Novel Ferroportin Inhibitors” (2018).

The source made the active and inactive calls. No cut-off for these calls is given here.

The target of assay [1] is T1, Ferroportin (Mus musculus) (UniProt Q9JHI9).
T1 sequence (whole entry): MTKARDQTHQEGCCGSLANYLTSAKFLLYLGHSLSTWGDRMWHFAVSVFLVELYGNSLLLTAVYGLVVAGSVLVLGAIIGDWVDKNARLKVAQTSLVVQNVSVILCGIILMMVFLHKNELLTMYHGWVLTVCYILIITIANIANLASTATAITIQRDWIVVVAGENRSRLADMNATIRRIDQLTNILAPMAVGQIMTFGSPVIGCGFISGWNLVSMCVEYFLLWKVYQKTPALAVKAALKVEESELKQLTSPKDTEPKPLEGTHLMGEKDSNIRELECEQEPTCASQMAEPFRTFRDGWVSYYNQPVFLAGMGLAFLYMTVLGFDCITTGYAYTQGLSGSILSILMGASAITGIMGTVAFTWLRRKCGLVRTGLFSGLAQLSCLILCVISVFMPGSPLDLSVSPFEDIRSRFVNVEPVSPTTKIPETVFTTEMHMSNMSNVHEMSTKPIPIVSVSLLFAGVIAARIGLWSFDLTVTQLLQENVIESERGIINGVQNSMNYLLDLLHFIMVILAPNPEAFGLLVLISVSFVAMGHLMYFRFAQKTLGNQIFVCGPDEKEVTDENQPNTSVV
Description: Inhibition of ferroportin in mouse J774 cells assessed as induce ferroportin ubiquitination and degradation at 0.3 uM incubated for 120 mins by immunoprecipitation assay. In kind it is cell-based.

Assay [2] concerns the target T1, Ferroportin (Mus musculus). Description: Inhibition of ferroportin in mouse J774 cells assessed as induce ferroportin ubiquitination and degradation at 0.3 uM incubated for 10 mins by immunoprecipitation assay. In kind it is cell-based.
For a further assay, the system named is Rattus norvegicus. Description: Prevention of iron absorption in orally dosed anemic Wistar rat model of iron absorption assessed as inhibition of increase in serum iron pre-dosed 1 hr before ferrous sulfate dosing and measured 3 hours after iron dosing. In kind it is functional, organism-based.
In assay [3] the target is T1, Ferroportin (Mus musculus). Description: Inhibition of ferroportin in mouse J774 cells assessed as induce ferroportin ubiquitination and degradation at 0.04 uM incubated for 120 mins by immunoprecipitation assay. In kind it is cell-based.
Assay [4] concerns the target T1, Ferroportin (Mus musculus). Description: Inhibition of ferroportin in mouse J774 cells assessed as induce ferroportin ubiquitination and degradation at 0.04 uM incubated for 10 mins by immunoprecipitation assay. It is filed as cell-based.
For assay [5], the system named is Mus musculus. Description: Induction of hypoferremia in orally dosed wild type C57BL/6 mouse assessed as decrease in serum iron levels measured after 3 hrs post dose. In kind it is functional, organism-based.
The subject of assay [6] is Mus musculus. As to the kind of experiment: Prevention of hyperferremia in iron overloaded beta2-microglobulin deficient mouse assessed as reduction in serum iron level at 50 mg/kg, po measured after 3 hrs relative to control. In kind it is functional, organism-based.
In assay [7] the target is T1, Ferroportin (Mus musculus). As to the kind of experiment: Inhibition of ferroportin in mouse J774 cells assessed as induce ferroportin ubiquitination and degradation at 0.8 uM incubated for 120 mins by immunoprecipitation assay. It is filed as cell-based.
The target of assay [8] is T1, Ferroportin (Mus musculus). Description: Inhibition of ferroportin in mouse J774 cells assessed as induce ferroportin ubiquitination and degradation at 0.8 uM incubated for 10 mins by immunoprecipitation assay. It is filed as cell-based.
For assay [9], the system named is Mus musculus. Description: Prevention of hyperferremia in iron overloaded beta2-microglobulin deficient female mouse assessed as reduction in serum iron level at 60 mg/kg, po measured after 3 hrs relative to control. In kind it is functional. Also noted: scale not given: the % may be the effect or the level left.
Assay [10] has as its target T1, Ferroportin (Mus musculus). Description: Inhibition of ferroportin in mouse J774 cells assessed as induce ferroportin ubiquitination and degradation at 0.1 uM incubated for 120 mins by immunoprecipitation assay. It is filed as cell-based.
For assay [11], the system named is Mus musculus. As to the kind of experiment: Disease modifying capacity in mouse model of transfusion-independent beta-thalassemia intermedia assessed as decrease in bone marrow ROS levels level at 60 mg/kg, po BID for 27 days relative to control. Also noted: scale not given: the % may be the effect or the level left. It is filed as functional.
In assay [12] the test system is Mus musculus. As to the kind of experiment: Prevention of hyperferremia in iron overloaded beta2-microglobulin deficient male mouse assessed as reduction in serum iron level at 60 mg/kg, po measured after 3 hrs relative to control. In kind it is functional. On the set-up: scale not given: the % may be the effect or the level left.
Assay [13] concerns the target T1, Ferroportin (Mus musculus). Description: Inhibition of ferroportin in mouse J774 cells assessed as induce ferroportin ubiquitination and degradation at 0.1 uM incubated for 10 mins by immunoprecipitation assay. It is filed as cell-based.

In the case of `O=C(NCc1ncccc1F)c1cnn(CCNCCc2nc3ccccc3[nH]2)c1`, the inhibition entry in assay [1] and in assay [2] was “Active” throughout.

On to `Cc1cccnc1CNC(=O)c1csc(CCNCc2nc3ccccc3[nH]2)n1`, for which the Activity result in the assay with Rattus norvegicus was “Dose-dependent effect”.

With `O=C(NCc1ncccc1F)c1csc(CCN(CCc2nc3ccccc3[nH]2)CCc2nc3ccccc3[nH]2)n1`, the inhibition entry in assay [3] and in [4] was “Active” each time.

In the case of `O=C(NCc1ncccc1F)c1csc(CCNCCc2nc3ccccc3[nH]2)n1`, the Activity entry with Mus musculus [5] is “Dose-dependent effect”. In addition, the outcome with Mus musculus [6] was Active. In addition, the inhibition result in assay [1] and in assay [2] was “Active” each time.

Take `O=C(NCc1ncccc1F)c1coc(CCNCc2nc3ccccc3[nH]2)n1`: the inhibition result in [7] and in assay [8] was “Active” throughout.

Turning to `Cl.Cl.Cl.O=C(NCc1ncccc1F)c1coc(CCNCCc2nc3ccccc3[nH]2)n1` [VAMIFEPORT HYDROCHLORIDE], the Activity with Mus musculus [9] is on record as 74%; in the assay on Mus musculus [11] it was 75%; with Mus musculus [12], 83%. The inhibition entry in [10] and in assay [13] was “Active” each time.
